Results published in US20260285850A1, “SUBSTITUTED OXAZOLIDINONES AND IMIDAZOLINONES AS HERBICIDES” (FMC CORPORATION, priority 2023, published 2026).

Legend:
Format in all cases: in vivo
[1] = system: barnyardgrass (Echinochloa crus-galli); test: Test A preemergence soil spray, visual injury rating 0-100; conditions: 10 days
In short: (§1)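 Rating: visual, day 10, untreated plants as reference, 0 no effect to 100 full control. Plants were in loam-sand and were treated either preemergence via directed soil spray or postemergence at the one- to two-leaf stage.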

[2] = system: blackgrass (Alopecurus myosuroides); test: as above; conditions: 10 days
In short: as §1

corn (Zea mays) [3] = test: as above; conditions: 10 days
In short: as §1

[4] = system: green foxtail (Setaria viridis); test: as above; conditions: 10 days
In short: as §1

kochia (Bassia scoparia) [5] = test: as above; conditions: 10 days
In short: as §1

[6] = system: oat, wild (wild oat, Avena fatua); test: as above; conditions: 10 days
In short: as §1

[7] = system: palmer (palmer amaranth, palmer pigweed, Amaranthus palmeri); test: as above; conditions: 10 days
In short: as §1

[8] = system: ragweed (common ragweed, Ambrosia artemisiifolia); test: as above; conditions: 10 days
In short: as §1

[9] = system: ryegrass, Italian (italian ryegrass, Lolium multiflorum); test: as above; conditions: 10 days
In short: as §1

soybean (Glycine max) [10] = test: as above; conditions: 10 days
In short: as §1

[11] = system: wheat (Triticum aestivum); test: as above; conditions: 10 days
In short: as §1

[12] = system: barnyardgrass (Echinochloa crus-galli); test: Test A postemergence application, visual injury rating 0-100
In short: as §1

[13] = system: blackgrass (Alopecurus myosuroides); test: as above
In short: as §1

corn (Zea mays) [14] = test: as above
In short: as §1

[15] = system: green foxtail (Setaria viridis); test: as above
In short: as §1

[16] = system: horseweed (Erigeron canadensis); test: as above
In short: as §1

kochia (Bassia scoparia) [17] = test: as above
In short: as §1

[18] = system: oat, wild (wild oat, Avena fatua); test: as above
In short: as §1

[19] = system: palmer (palmer amaranth, palmer pigweed, Amaranthus palmeri); test: as above
In short: as §1

[20] = system: ragweed (common ragweed, Ambrosia artemisiifolia); test: as above
In short: as §1

[21] = system: ryegrass, Italian (italian ryegrass, Lolium multiflorum); test: as above
In short: as §1

soybean (Glycine max) [22] = test: as above
In short: as §1

[23] = system: wheat (Triticum aestivum); test: as above
In short: as §1

[24] = system: barnyardgrass (Echinochloa crusgalli); test: Test B flooded paddy test, visual plant response rating 0-100; conditions: 250 g ai/ha, Flood, applied to paddy water, evaluated after 13 days
In short: (§2)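 Visual evaluation after 13 days. Water-applied treatment, 3 cm flood depth held constant, plants at 2-leaf stage at treatment.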

[25] = system: ducksalad (Heteranthera limosa); test: as above; conditions: 250 g ai/ha, Flood, applied to paddy water, evaluated after 13 days
In short: as §2

rice (Oryza sativa) = test: as above; conditions: 250 g ai/ha, Flood, applied to paddy water, evaluated after 13 days
In short: as §2

[26] = system: sedge, umbrella (small-flower umbrella sedge, Cyperus difformis); test: as above; conditions: 250 g ai/ha, Flood, applied to paddy water, evaluated after 13 days
In short: as §2

[27] = 62 g ai/ha, 0 = no effect, 100 = complete control
[28] = 62 g ai/ha, postemergence, 10 days, 0 = no effect, 100 = complete control
[29] = Postemergence, 16 g ai/ha, greenhouse 10 days, 0 no effect, 100 complete control

SMILES: COC(=O)COC(=O)C1=CCC(NC(=O)C2(C)CN(c3cc(Cl)cc(Cl)c3)C(=O)O2)C1 (centres unmarked) [Compound 110]
- Barnyardgrass plant response rating ([1]; 16 g ai/ha, 0 to 100 scale): 50
- Barnyardgrass plant response rating (0-100) [1, 27]: 100
- Blackgrass plant response rating ([2]; 16 g ai/ha, 0 to 100 scale): 0
- Blackgrass plant response rating (0-100) [2, 27]: 30
- Corn plant response rating (corn (Zea mays) [3]; 16 g ai/ha, 0 to 100 scale): 0
- Corn plant response rating (0-100) (corn (Zea mays) [3]; [27]): 30
- Foxtail, Green plant response rating ([4]; 16 g ai/ha, 0 to 100 scale): 0
- Foxtail, Green plant response rating (0-100) [4, 27]: 90
- Kochia plant response rating (kochia (Bassia scoparia) [5]; 16 g ai/ha, 0 to 100 scale): 0
- Kochia plant response rating (0-100) (kochia (Bassia scoparia) [5]; [27]): 0
- Oat, Wild plant response rating ([6]; 16 g ai/ha, 0 to 100 scale): 0
- Oat, Wild plant response rating (0-100) [6, 27]: 0
- Pigweed, Palmer plant response rating ([7]; 16 g ai/ha, 0 to 100 scale): 80
- Pigweed, Palmer plant response rating (0-100) [7, 27]: 100
- Ragweed plant response rating ([8]; 16 g ai/ha, 0 to 100 scale): 0
- Ragweed plant response rating (0-100) [8, 27]: 0
- Ryegrass, Italian plant response rating ([9]; 16 g ai/ha, 0 to 100 scale): 0
- Ryegrass, Italian plant response rating (0-100) [9, 27]: 60
- Soybean plant response rating (soybean (Glycine max) [10]; 16 g ai/ha, 0 to 100 scale): 10
- Soybean plant response rating (0-100) (soybean (Glycine max) [10]; [27]): 0
- Wheat plant response rating ([11]; 16 g ai/ha, 0 to 100 scale): 40
- Wheat plant response rating (0-100) [11, 27]: 80
- Barnyardgrass plant response rating (0-100) [12, 28]: 100
- Barnyardgrass plant response rating (0 to 100 scale) [12, 29]: 90
- Blackgrass plant response rating (0-100) [13, 28]: 100
- Blackgrass plant response rating (0 to 100 scale) [13, 29]: 80
- Corn plant response rating (0-100) (corn (Zea mays) [14]; [28]): 100
- Corn plant response rating (0 to 100 scale) (corn (Zea mays) [14]; [29]): 100
- Foxtail, Green plant response rating (0-100) [15, 28]: 90
- Foxtail, Green plant response rating (0 to 100 scale) [15, 29]: 90
- Horseweed plant response rating (0-100) [16, 28]: 80
- Horseweed plant response rating (0 to 100 scale) [16, 29]: 70
- Kochia plant response rating (0-100) (kochia (Bassia scoparia) [17]; [28]): 90
- Kochia plant response rating (0 to 100 scale) (kochia (Bassia scoparia) [17]; [29]): 90
- Oat, Wild plant response rating (0-100) [18, 28]: 30
- Oat, Wild plant response rating (0 to 100 scale) [18, 29]: 20
- Pigweed, Palmer plant response rating (0-100) [19, 28]: 100
- Pigweed, Palmer plant response rating (0 to 100 scale) [19, 29]: 90
- Ragweed plant response rating (0-100) [20, 28]: 80
- Ragweed plant response rating (0 to 100 scale) [20, 29]: 50
- Ryegrass, Italian plant response rating (0-100) [21, 28]: 70
- Ryegrass, Italian plant response rating (0 to 100 scale) [21, 29]: 50
- Soybean plant response rating (0-100) (soybean (Glycine max) [22]; [28]): 70
- Soybean plant response rating (0 to 100 scale) (soybean (Glycine max) [22]; [29]): 30
- Wheat plant response rating (0-100) [23, 28]: 90
- Wheat plant response rating (0 to 100 scale) [23, 29]: 50
- Plant response rating, Barnyardgrass (0 to 100 scale, 0 is no effect and 100 is complete control) [24]: 60
- Plant response rating, Ducksalad (0 to 100 scale, 0 is no effect and 100 is complete control) [25]: 95
- Plant response rating, Rice (0 to 100 scale, 0 is no effect and 100 is complete control) (rice (Oryza sativa)): 40
- Plant response rating, Sedge, Umbrella (0 to 100 scale, 0 is no effect and 100 is complete control) [26]: 98
